The structures appear in SMILES notation. A value given as a limit tells only on which side of the number the result lay.

We go through 19 compounds from ChEMBL document CHEMBL5346956, “Opportunities and Challenges for Inhibitors Targeting Citrate Transport and Metabolism in Drug Discovery” (J Med Chem, 2023).

The target in series [1] is T1, Na(+)/dicarboxylate cotransporter 3 (Homo sapiens, UniProt Q8WWT9).
T1 sequence (Q8WWT9 whole entry): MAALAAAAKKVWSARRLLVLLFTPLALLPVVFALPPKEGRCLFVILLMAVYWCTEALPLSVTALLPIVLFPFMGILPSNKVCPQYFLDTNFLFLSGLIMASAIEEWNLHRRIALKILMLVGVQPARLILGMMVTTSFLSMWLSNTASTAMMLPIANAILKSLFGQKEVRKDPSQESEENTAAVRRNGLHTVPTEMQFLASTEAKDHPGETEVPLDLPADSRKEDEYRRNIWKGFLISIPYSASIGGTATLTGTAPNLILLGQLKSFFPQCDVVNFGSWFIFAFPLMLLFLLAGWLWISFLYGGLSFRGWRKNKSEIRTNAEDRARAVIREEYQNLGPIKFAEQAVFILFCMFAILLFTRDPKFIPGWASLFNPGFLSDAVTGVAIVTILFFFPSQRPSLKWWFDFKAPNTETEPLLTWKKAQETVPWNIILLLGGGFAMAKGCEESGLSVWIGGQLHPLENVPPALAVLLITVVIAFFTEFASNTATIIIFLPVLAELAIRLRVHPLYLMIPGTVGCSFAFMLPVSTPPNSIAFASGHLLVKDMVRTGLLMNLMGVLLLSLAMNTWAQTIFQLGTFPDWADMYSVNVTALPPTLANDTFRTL
Put plainly: Inhibition of human SLC13A3 in HepG2 cells by measuring […] uptake. The series is classed as cell-based.

A short description of series [2]: Inhibition of mouse mINDY in HEK293 cells. The series is classed as cell-based.
The nature of series [3]: Metabolic stability in rat liver microsomes assessed as half life. The series is classed as ADME, Microsome. For orientation: Liver microsomes are vesicles of endoplasmic reticulum, rich in cytochrome P450 enzymes.
The target of series [4] is T2, ATP-citrate synthase (Homo sapiens, UniProt P53396).
T2 sequence (P53396 whole entry): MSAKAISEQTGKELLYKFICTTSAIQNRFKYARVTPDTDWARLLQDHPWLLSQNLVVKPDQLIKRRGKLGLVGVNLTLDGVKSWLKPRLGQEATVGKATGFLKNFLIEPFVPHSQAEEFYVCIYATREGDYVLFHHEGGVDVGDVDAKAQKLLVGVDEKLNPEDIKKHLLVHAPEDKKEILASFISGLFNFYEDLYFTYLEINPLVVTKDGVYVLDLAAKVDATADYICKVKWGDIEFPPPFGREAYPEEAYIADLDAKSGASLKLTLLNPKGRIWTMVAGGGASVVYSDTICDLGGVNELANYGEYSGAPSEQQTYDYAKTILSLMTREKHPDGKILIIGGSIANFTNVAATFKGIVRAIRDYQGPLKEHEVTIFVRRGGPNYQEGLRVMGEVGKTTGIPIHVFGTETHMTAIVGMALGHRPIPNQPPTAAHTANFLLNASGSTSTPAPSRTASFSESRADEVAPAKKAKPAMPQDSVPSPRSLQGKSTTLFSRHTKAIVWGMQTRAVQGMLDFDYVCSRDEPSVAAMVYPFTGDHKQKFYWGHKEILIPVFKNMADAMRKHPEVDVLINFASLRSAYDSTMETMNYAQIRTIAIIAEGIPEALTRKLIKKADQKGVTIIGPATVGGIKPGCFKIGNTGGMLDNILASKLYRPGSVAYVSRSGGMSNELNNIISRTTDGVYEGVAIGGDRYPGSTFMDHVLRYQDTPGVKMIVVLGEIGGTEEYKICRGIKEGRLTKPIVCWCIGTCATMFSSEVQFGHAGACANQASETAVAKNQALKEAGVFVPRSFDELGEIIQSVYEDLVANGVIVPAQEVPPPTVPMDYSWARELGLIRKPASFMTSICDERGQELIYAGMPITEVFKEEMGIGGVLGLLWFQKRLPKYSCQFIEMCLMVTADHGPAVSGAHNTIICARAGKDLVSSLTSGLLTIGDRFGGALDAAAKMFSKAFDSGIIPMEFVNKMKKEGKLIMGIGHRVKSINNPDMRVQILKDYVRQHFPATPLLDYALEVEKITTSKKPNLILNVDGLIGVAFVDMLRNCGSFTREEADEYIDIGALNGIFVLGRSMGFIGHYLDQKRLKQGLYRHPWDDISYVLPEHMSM

Series [5] can be described thus: in vitro. The settings on record: human, liver microsomes.
Series [6] concerns the target T2, ATP-citrate synthase. This is another data set of the same source.
The target in series [7] is T2, ATP-citrate synthase. Put plainly: Binding affinity to ACLY (unknown origin) assessed as inhibition constant.
The target of series [8] is T2, ATP-citrate synthase. The source holds these as a separate data set.
Series [9] has as its system HeLa. Nature of the series: Antiproliferative activity against human HeLa cells assessed as inhibition of cell growth measured after 24 hrs. The series is classed as functional, cell-based.
Series [10] addresses T3, ATP-citrate synthase (Rattus norvegicus, UniProt P16638).
T3 sequence (P16638 whole entry): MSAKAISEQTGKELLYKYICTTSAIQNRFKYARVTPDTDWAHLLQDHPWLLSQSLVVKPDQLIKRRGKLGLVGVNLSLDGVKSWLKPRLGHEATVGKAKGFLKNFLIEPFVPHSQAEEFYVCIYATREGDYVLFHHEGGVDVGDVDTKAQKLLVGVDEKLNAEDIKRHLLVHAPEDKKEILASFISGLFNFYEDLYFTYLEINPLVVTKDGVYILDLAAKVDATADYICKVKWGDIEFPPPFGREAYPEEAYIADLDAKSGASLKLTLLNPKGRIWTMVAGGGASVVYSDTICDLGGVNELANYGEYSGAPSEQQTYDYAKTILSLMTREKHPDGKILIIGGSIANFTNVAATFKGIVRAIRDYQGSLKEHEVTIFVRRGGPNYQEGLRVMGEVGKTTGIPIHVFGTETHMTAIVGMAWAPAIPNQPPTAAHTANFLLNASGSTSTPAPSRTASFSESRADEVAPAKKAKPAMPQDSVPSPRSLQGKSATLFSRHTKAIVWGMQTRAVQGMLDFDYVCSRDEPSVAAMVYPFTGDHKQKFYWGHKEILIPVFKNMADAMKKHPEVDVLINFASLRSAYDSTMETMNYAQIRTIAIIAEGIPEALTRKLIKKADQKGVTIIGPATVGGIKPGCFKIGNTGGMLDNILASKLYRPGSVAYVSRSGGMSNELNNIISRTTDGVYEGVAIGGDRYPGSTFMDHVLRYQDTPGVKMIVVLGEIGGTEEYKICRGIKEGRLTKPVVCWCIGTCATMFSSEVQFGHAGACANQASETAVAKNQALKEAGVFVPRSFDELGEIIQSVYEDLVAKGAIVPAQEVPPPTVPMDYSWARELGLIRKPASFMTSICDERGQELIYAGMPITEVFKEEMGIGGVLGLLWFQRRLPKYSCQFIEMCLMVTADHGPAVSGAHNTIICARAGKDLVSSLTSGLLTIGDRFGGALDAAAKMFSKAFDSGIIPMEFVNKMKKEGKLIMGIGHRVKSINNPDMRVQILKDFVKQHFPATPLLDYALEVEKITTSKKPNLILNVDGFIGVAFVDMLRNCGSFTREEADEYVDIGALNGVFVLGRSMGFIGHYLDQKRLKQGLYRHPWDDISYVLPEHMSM
Nature of the series: Binding affinity to rat ACLY assessed as inhibition constant measured after 20 mins.

The target of series [11] is T4, Tricarboxylate transport protein, mitochondrial (Homo sapiens, UniProt P53007). Put plainly: Binding affinity to human SLC25A1 assessed as inhibition constant.
Target sequence in this assay (P53007 whole entry): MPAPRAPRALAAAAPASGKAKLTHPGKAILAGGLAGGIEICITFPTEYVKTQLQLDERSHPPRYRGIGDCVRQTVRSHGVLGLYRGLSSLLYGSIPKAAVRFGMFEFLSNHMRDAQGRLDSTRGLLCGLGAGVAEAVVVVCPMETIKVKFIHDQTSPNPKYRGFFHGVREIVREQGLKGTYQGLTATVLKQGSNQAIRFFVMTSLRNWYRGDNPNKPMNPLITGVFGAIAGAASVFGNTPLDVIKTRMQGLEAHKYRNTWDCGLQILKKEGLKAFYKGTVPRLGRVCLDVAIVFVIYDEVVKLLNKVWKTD
Series [12] has as its target T4, Tricarboxylate transport protein, mitochondrial. Nature of the series: Inhibition of human SLC25A1 at 1 uM relative to control.
Target sequence in this assay (P53007 14-311 limits assumed): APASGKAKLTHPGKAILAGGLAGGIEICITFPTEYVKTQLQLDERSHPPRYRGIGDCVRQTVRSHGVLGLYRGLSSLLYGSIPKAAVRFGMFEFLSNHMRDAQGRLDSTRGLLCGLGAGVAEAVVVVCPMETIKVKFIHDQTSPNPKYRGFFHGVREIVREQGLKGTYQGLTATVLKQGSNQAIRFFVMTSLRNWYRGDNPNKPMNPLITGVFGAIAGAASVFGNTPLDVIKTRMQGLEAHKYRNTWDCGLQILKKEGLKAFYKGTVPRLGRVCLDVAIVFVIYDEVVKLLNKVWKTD
For series [13] the target is unchanged. Nature of the series: Inhibition of SLC25A1 (unknown origin) at 1 uM relative to control.
Target sequence in this assay (P53007 14-311 limits assumed): as above
Series [14] addresses Na(+)/citrate cotransporter (Homo sapiens, UniProt Q86YT5). Put plainly: Inhibition of recombinant human SLC13A5 in HEK293T cells. The class given is cell-based.

Chain of Na(+)/citrate cotransporter (Q86YT5 whole entry): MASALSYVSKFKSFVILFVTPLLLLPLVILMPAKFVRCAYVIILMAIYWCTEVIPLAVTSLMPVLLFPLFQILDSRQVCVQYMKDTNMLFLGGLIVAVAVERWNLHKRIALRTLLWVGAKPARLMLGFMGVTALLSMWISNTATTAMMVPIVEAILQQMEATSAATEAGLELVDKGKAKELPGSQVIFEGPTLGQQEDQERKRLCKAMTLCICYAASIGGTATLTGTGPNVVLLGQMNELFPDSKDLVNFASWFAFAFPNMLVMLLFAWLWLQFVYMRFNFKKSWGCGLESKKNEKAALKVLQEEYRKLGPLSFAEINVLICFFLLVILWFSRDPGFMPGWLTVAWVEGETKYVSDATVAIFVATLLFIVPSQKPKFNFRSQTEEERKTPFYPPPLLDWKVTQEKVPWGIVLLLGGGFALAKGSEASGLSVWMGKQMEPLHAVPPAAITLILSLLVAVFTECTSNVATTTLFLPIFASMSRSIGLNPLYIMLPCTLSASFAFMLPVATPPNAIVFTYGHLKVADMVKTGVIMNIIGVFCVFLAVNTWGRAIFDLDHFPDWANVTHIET

In general, IC50 refers to the concentration at which inhibition is half-maximal. Turning to `O=C(Nc1cc(Cl)cc(C(F)(F)F)c1)OCCC(F)(F)F`, the IC50 in [1] was 0.16 µM; in series [2], 0.18 µM.
In general, half-life refers to the time in which the quantity being followed falls by half. For `[2H]C(O)(CCCCCC(C)(C)C(=O)O)CCCCCC(C)(C)C(=O)O`, the half-life in series [3] was > 2.42 h.
Broadly, the Kd is the constant that tells how readily two partners part at equilibrium. The Ki is the dissociation constant of the complex between target and ligand, obtained from inhibition or displacement. In [4], `COC(=O)c1cc(Cl)c(O)c(S(=O)(=O)Nc2cc(-c3ccccc3)c(F)cc2F)c1` had a half-maximal inhibitory concentration (IC50) of 0.0021 µM. Further, in [5], the half-life was 0.056 h. The compound also returned a Kd in series [6] of 0.0022 µM. Moreover, the Ki in series [7] stood at 0.007 µM.
For `[2H]C([2H])(CCCCC(C)(C)C(=O)O)C(O)C([2H])([2H])CCCCC(C)(C)C(=O)O`, in series [3], the half-life was > 2.42 h.
Regarding `O=C(O)C[C@](O)(C[C@H](O)CCCCCCc1ccc(Cl)cc1Cl)C(=O)O`, the Ki in series [7] was determined as 1 µM.
In the case of `O=C1NCc2ccccc2-c2cc(c(F)cc2F)NS(=O)(=O)c2cc1cc(Cl)c2O`, the half-life in series [5] worked out at 8.85 h.
In series [8], `CC(C)(CCCC/C=C/CCCCCC(C)(C)C(=O)O)C(=O)O` showed an IC50 of 5.31 µM.
`C[C@@H]1C[C@H]2O[C@@H]2/C=C\C=C\C(=O)Cc2c(Cl)c(O)cc(O)c2C(=O)O1` [RADICICOL]: the Ki in [7] was 13 µM.
Turning to `O=C(O)CC(O)(CSCCCCCCc1ccc(Cl)cc1Cl)C(=O)O` (stereo unspecified), in series [7], the Ki is 1.2 µM.
Take `[2H]C(O)(CCCCCC(C(=O)O)(C([2H])([2H])[2H])C([2H])([2H])[2H])CCCCCC(C(=O)O)(C([2H])([2H])[2H])C([2H])([2H])[2H]`: the half-life in series [3] was > 2.42 h.
Consider `O=C(O)CC(CSCCCCCCc1ccc(Cl)cc1Cl)C(=O)O` (stereo unspecified), for which, in [7], the Ki turned out to be 1.2 µM.
Consider `O=c1c(O)c(-c2ccc(O)cc2)oc2c(O)c(O)cc(O)c12` [HERBACETIN], for which the IC50 in [9] was 0.5 µM.
`O=C(O)CC(O)(CC(=O)CCCCCCc1ccc(Cl)cc1Cl)C(=O)O` (stereo unspecified): the inhibition constant (Ki) in series [7] stood at 1.2 µM.
With `O=C(O)C[C@@]1(O)C[C@@H](Cc2ccc(Cl)cc2Cl)OC1=O`, in [10], the Ki turned out to be 1 µM.
Broadly, the inhibition is the percentage by which the read-out fell short of the control. The low end stands for a weak effect, the high end for a strong effect. With `O=C(O)c1ccc(Cl)c(S(=O)(=O)Nc2cccc([N+](=O)[O-])c2)c1`, the inhibitory constant (Ki) in [11] worked out at 48 µM. Moreover, the inhibition in [12] and in series [13] was 84.7% throughout.
For the compound `O=C(O)CC(O)(CCCCCCCCc1ccc(Cl)cc1Cl)C(=O)O` (stereo unspecified), in [7], the inhibition constant (Ki) came out at 1.2 µM.
The compound `O=C(O)c1cccc(C(=O)O)c1C(=O)O` registered an inhibition in [13] of 95%.
Consider `Cc1nc(OC(F)F)ccc1C(C)N1CCc2c(C#N)c(Cl)nc(NCC#N)c2C1` (stereo unspecified), for which the half-inhibitory concentration (IC50) in series [1] and in series [14] was < 0.05 µM in each case.
On to `[2H]C([2H])(CCCCC(C)(C)C(=O)O)C([2H])(O)C([2H])([2H])CCCCC(C)(C)C(=O)O`, for which the half-life in series [3] is > 2.42 h.
